Like-named read-outs stand apart in the source and are kept apart here.
Legend:
APE1 [1] = biological target: T1, APE1 (Homo sapiens, UniProt P27695); test: Direct binding by surface plasmon resonance (BIACORE 2000), APE1 immobilized on CM5 chip; design: the full length APE1 protein was successfully expressed and purified; made in house; host or cells: E. coli BL21/DE3; conditions: for kd: full length APE1; for kon: pH 7.4, read-out: ka
Procedure: APE1 (and its hydrophobic mutants) and lucanthone/hycanthone reaction stoichiometry was studied using surface plasmon resonance on a BIACORE 2000 apparatus (Biacore, GE Healthcare, Sweden) at the protein core facility in SUNYSB, to determine the affinity of the two drugs for APE1 (or NΔ40 APE1). APE1 and its mutants (10 µg) (RUmax values were 9000 RU units after immobilization) were immobilized on a CM5 chip by amine coupling (as per the manufacturer's instructions) and binding experiments were performed at 20°C in 10 mM HBS-EP buffer, pH 7.4. Lucanthone (or hycanthone) (20–700 µM) was injected as analyte over the sensor chip in HBS-EP buffer at 10 µl/min. The regeneration was achieved by 10 mM glycine-HCl, pH 3.0 between each analyte (drug) concentration.

APE1 [2] = biological target: T1, APE1; test: MALDI-TOF analysis of APE1 degradation; design: the full length APE1 protein was successfully expressed and purified; made in house; host or cells: E. coli BL21/DE3; conditions: 100 µM drug; for APE1 protein fragments by MALDI-TOF / Full length 35.5 kDa APE1 peak by MALDI-TOF: 37°C; for APE1 protein fragments by MALDI-TOF: 2 or 24 h; for Full length 35.5 kDa APE1 peak by MALDI-TOF: 24 h
Procedure: 100 nM of APE1 protein was treated with 100 µM of lucanthone, hycanthone or CRT at 37°C for 2 h and 24 h and analyzed on sinipinic acid matrix on a Voyager-DE STR (Applied Biosystems) MALDI-TOF instrument at the Proteomics facility at SUNYSB in a linear mode.

APE1 [3] = biological target: T1, APE1; test: APE1 endonuclease activity: incision of depurinated plasmid (pUC18) DNA; format: biochemical; design: the full length APE1 protein was successfully expressed and purified; made in house; host or cells: E. coli BL21/DE3
Procedure: APE1 endonuclease activity was determined using an assay that measures the conversion of plasmid DNA from supercoiled to relaxed form by incision at an abasic site [35]–[36]. Briefly, the substrate used was 200 ng of depurinated pUC18 DNA in 10 µl of 1× APE1 buffer containing 50 mM Hepes, pH 7.4, 150 mM KCl, 5 mM MgCl2 and 100 µg/ml of BSA in presence of different concentrations of the cell extract (1 µl containing 0–55 ng of total protein). Similar reactions mixtures were set up with untreated pUC18, which served as the internal control. This reaction mixture was incubated at 37°C for 15 min, and the reaction was stopped by addition of alkaline stop mix (0.25% bromocresol green in 0.25N NaOH, 50% glycerol) and left at room temperature for 10–15 min. Then the products were resolved on a 0.8% agarose gel in 40 mM Tris-acetate and 2 mM EDTA for 2 h. The gel was stained with ethidium bromide to visualize supercoiled and relaxed plasmid DNA and imaged with a digital imaging system and the area under the supercoiled and relaxed form was determined. Final calculations were done in femtomoles (fmol) of abasic sites incised/min/mg protein with normalization done using Pyruvate Kinase units (PKU) present in these extracts. Poisson distribution calculations were done on supercoiled and relaxed bands to estimate incisions per plasmid molecule and the resulting depurinated pUC18 had 1 AP site per molecule. The endonuclease activity inhibition by lucanthone was analyzed using standard Lineweaver-Burke Plot to determine if the inhibition was competitive or non-competitive.

APE1 [4] = biological target: T1, APE1; test: Far UV circular dichroism of APE1 with drug (CDSSTR/DICHROWEB); design: the full length APE1 protein was successfully expressed and purified; made in house; host or cells: E. coli BL21/DE3; Helix 1 / Helix 2 / Strand 1 / Strand 2 / Turns / Unordered: unit not given here; conditions: APE1 plus drug (1 mg/ml, 50 µl), 37°C, 60 min
Procedure: APE1 and its mutant proteins (10 mg/ml), 50 µl (500 µg) (14 µM) in APE1 buffer (50 mM HEPES, pH 7.4, 150 mM KCl, 5 mM MgCl2), were mixed with lucanthone/hycanthone (1 mg/ml), 50 µl (50 µg), 140 µM and incubated at 37°C for 60 min and far UV-CD spectra were recorded at NSLS U11 beam line at BNL. Lucanthone and hycanthone were also scanned as drug controls. The scanning parameters used were a 0.001 cm path length quartz cell, scanning wavelengths from 260 to 170 nm, bandwidth of 0.5 nm, digital integration time of 1 s, time constant of 200 ms, step size of 1 nm, and sensitivity of 200 µV. The data were corrected with blank subtraction from APE1 buffer alone. The secondary structure for APE1 with or without lucanthone or hycanthone was analyzed using CDSSTR program DICHROWEB [38].

T1 sequence (P27695 whole entry): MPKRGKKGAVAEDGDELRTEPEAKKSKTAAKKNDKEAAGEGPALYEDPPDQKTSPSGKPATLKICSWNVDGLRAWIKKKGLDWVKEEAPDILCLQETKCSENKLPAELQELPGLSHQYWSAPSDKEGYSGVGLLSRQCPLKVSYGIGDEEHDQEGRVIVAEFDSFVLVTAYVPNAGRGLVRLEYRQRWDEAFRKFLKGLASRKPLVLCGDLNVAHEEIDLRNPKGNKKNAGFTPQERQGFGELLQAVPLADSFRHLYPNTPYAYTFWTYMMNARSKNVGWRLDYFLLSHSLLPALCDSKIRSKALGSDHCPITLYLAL

Structure (SMILES) | APE1:drug stoichiometry (APE1 [1]) | RUmax (APE1 [1]) [RU] | kd (APE1 [1]) [s⁻¹] | kon (APE1 [1]) [M⁻¹ s⁻¹] | APE1 protein fragments by MALDI-TOF (APE1 [2]) | Full length 35.5 kDa APE1 peak by MALDI-TOF (APE1 [2]) | Av. helix length per segment (APE1 [4]) | Av. strand length per segment (APE1 [4]) | Helix 1 (APE1 [4]) | Helix 2 (APE1 [4]) | Strand 1 (APE1 [4]) | Strand 2 (APE1 [4]) | Turns (APE1 [4]) | Unordered (APE1 [4]) | other results
CCN(CC)CCNc1ccc(CO)c2sc3ccccc3c(=O)c12 [hycanthone] | ~1 | 90 | 8.9e-07 | 90 | cleavage of APE1 as evidenced mainly by 10, 11 and 17 kDa peaks | almost completely degraded | 4.020 | 5.799 | 0.00 | 0.069 | 0.267 | 0.141 | 0.124 | 0.399 | Kd (APE1 [1]; BIACORE, 20°C, HBS-EP pH 7.4, read-out: KD (affinity constant)): 10 nM; RUligand (APE1 [1]; Conc 22 µM): 24 RU; RUligand (APE1 [1]; Conc 44 µM): 45 RU; RUligand (APE1 [1]; Conc 88 µM): 78 RU; RUligand (APE1 [1]; Conc 176 µM): 79 RU; RUligand (APE1 [1]; Conc 352 µM): 90 RU; RUligand (APE1 [1]; Conc 704 µM): 118 RU; Ka, fold higher than lucanthone (APE1 [1]; hycanthone vs lucanthone): about 8 fold; kd of full length APE1, fold lower than for lucanthone (APE1 [1]; hycanthone vs lucanthone): ~100 fold; IC50 (APE1 [3]; read-out: IC50 for inhibition of APE1 incision of depurinated plasmid DNA): 80 nM
CCN(CC)CCNc1ccc(C)c2sc3ccccc3c(=O)c12 [lucanthone, 1-[2-diethylaminoethylamino]-4-methylthioxanthen-9-one] | may have been lower | 91 | 7.76e-05 | 878 | steady degradation of APE1 into smaller fragments | almost completely degraded | 4.053 | 5.762 | 0.00 | 0.071 | 0.262 | 0.140 | 0.125 | 0.403 | Kd (APE1 [1]): 89 nM; RUligand (APE1 [1]; Conc 20 µM): −82 RU; RUligand (APE1 [1]; Conc 40 µM): −26 RU; RUligand (APE1 [1]; Conc 80 µM): 2.5 RU; RUligand (APE1 [1]; Conc 160 µM): 77 RU; RUligand (APE1 [1]; Conc 320 µM): 94 RU; RUligand (APE1 [1]; Conc 640 µM): 62 RU; Time at which APE1 degradation is seen by MALDI (APE1 [2]): ≤ 2 h; IC50 (APE1 [3]): 5000 nM; Kinetics (mode) of inhibition, Lineweaver-Burke plot (APE1 [3]): non-competitive inhibitor; Inhibition of endonuclease activity of wild type APE1 (APE1 [3]; 100 µM lucanthone, 2 h, 37°C): corresponding inhibition of the endonuclease activity; AP endonuclease activity of recombinant APE1 (APE1 [3]; 10-50 µM, 37°C, 2 h): corresponding decrease in AP endonuclease activity
